# Values of other authors as cited in patent US8507698B2, “Artemisinin derivatives for the treatment of melanoma” (Lachifarma S.R.L. Laboratorio Chimico Farmaceutico Salentino, priority 2007, dated 2013).
# Test system: cell line of oral cancer (YD-10B)
# Settings: read-out: CI50 (the source's name)
smiles,measurement,value
CC(=O)O[C@H]1C(=O)[C@@]2(C)[C@H]([C@H](OC(=O)c3ccccc3)[C@]3(O)C[C@H](OC(=O)[C@H](O)[C@@H](NC(=O)c4ccccc4)c4ccccc4)C(C)=C1C3(C)C)[C@]1(OC(C)=O)CO[C@@H]1C[C@@H]2O [paclitaxel],IC50,13.1 µM
